What was measured:
[1] = molecular target: T1, p53 Y220C mutant protein (amino acid residues 94-293) (Homo sapiens, UniProt P04637, Y220C); experiment: Surface Plasmon Resonance (SPR) assay, Kd_kinetic; format: binding; settings: SPR, kinetic KD, p53 Y220C; read-out: SPR P53 Y220C KD kinetic
T1 construct: p53 Y220C mutant protein (amino acid residues 94-293)
Summary of the method: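 Kd values come from fitting sensorgrams to a 1:1 binding model. Sensorgrams were recorded on a Biacore 8K at 16 or 20 °C in pH 7.5 Tris buffer with 100 mM NaCl, 1 mM DTT, detergents and 1% DMSO.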

[2] = molecular target: T1, p53 Y220C mutant protein (amino acid residues 94-293); experiment: Thermal Shift Assay (TSA), dTM; format: binding; settings: thermal shift; for ΔTm at 100 µM: 100 uM compound, read-out: TSA P53 Y220C dTM (100 uM); for ΔTm at 10 µM: 10 uM compound, read-out: TSA P53 Y220C dTM (10 uM)
Summary of the method: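 TM is derived by fitting Sypro Orange melt curves (30 °C to 50 °C, 0.03 °C/second) to a Boltzmann two-state model. Beforehand, 5 μM p53 Y220C (94-293) sits with 10 μM or 100 μM compound for 3 hours at 20 °C in HEPES pH7.4 buffer containing 100 mM NaCl and 1% DMSO.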

p53 Y220C = p53 Y220C (Homo sapiens, UniProt P04637, Y220C); experiment: Luciferase Reporter Assay (Luc), p53 response element, NClH1299 cells with inducible p53 Y220C; format: cell-based; settings: luciferase reporter, NClH1299 inducible p53 Y220C, 6 hour; for Emax: 10 uM tool compound as positive control; for AC50: read-out: Luc P53 Y220C AC50
Summary of the method: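 Doxycycline (0.5 ug/mL, 24 h) induces the mutant before a 6-hour compound treatment. Reporter activity is then quantified by One-Glo luminescence.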

NUGC3 p53 Y220C = experiment: Cell Proliferation Assay (CellTiter-Glo, CTG), NUGC3 p53 Y220C; format: cell-based; settings: Homo sapiens, NUGC-3, 120 h, CellTiter-Glo, NUGC3 p53 Y220C, 5 days
Summary of the method: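 NClH1299 lines stably transduced with Tet-inducible p53 Y220C or R273H, plus NUGC3, were treated with compound for 5 days at 250-500 cells/well. IC50 derived from CellTiter-Glo luminescent signal after 10 min room-temperature incubation.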

H1299 p53 Y220C = experiment: Cell Proliferation Assay (CellTiter-Glo, CTG), H1299 p53 Y220C (NClH1299-inducible p53 Y220C); format: cell-based; settings: Homo sapiens, NCI-H1299, 120 h, CellTiter-Glo, H1299 p53 Y220C, 5 days
Summary of the method: (§1)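 Tet-One inducible p53 Y220C or R273H constructs were stably introduced into NCI-H1299 by lentiviral transduction; NUGC3 was used as is. Cells (250-500 per well) were exposed to compound for 5 days, then CellTiter-Glo was added for 10 min at room temperature and IC50 was calculated from luminescence.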

H1299 p53 R273H = experiment: Cell Proliferation Assay (CellTiter-Glo, CTG), H1299 p53 R273H (NClH1299-inducible p53 R273H); format: cell-based; settings: Homo sapiens, NCI-H1299, 120 h, CellTiter-Glo, H1299 p53 R273H, 5 days
Summary of the method: as §1

SMILES | Kd [1] [nM] | ΔTm at 100 µM [2] [°C] | Emax (p53 Y220C) [%] | AC50 (p53 Y220C) [nM] | IC50 (H1299 p53 Y220C) [nM] | IC50 (H1299 p53 R273H) [nM] | ΔTm at 10 µM [2] [°C] | IC50 (NUGC3 p53 Y220C) [nM]
CNC(=O)c1ccc(NCC#Cc2nc3c(N[C@@H]4CCN(C)C[C@@H]4F)cccn3c2NC)c(OC)c1 [Example 25, 4-{[3-(8-{[(3S,4R)-3-fluoro-1-methylpiperidin-4-yl]amino}-3-(methylamino)imidazo[1,2-a]pyridin-2-yl)prop-2-yn-1-yl]amino}-3-methoxy-N-methylbenzamide] | 100 to 1000 | 5 to 10 | < 70 | > 3000 | > 3000 | ≥ 10000 | – | > 3000
CNC(=O)c1ccc(NCC#Cc2nc3c(N[C@@H]4CCN(C)C[C@@H]4F)cccn3c2C2CC2)c(OC)c1 [Example 29, 4-{[3-(3-cyclopropyl-8-{[(3S,4R)-3-fluoro-1-methylpiperidin-4-yl]amino}imidazo[1,2-a]pyridin-2-yl)prop-2-yn-1-yl]amino}-3-methoxy-N-methylbenzamide] | 100 to 1000 | 5 to 10 | < 70 | > 3000 | > 3000 | ≥ 10000 | – | > 3000
CNc1cc(NC2CCN(C)CC2)c2nc(C#CCNc3ccc(S(C)(=O)=O)cc3OC)c(CC(F)(F)F)n2c1 [Example 33, 2-{3-[(4-methanesulfonyl-2-methoxyphenyl)amino]prop-1-yn-1-yl}-N6-methyl-N8-(1-methylpiperidin-4-yl)-3-(2,2,2-trifluoroethyl) imidazo[1,2-a]pyridine-6,8-diamine] | 10 to 100 | 1 to 5 | < 70 | > 3000 | > 3000 | ≥ 10000 | – | > 3000
CNC(=O)c1ccc(NCC#Cc2nc3c(NC4CCN(C)CC4)cc(NC(=O)OC(C)(C)C)cn3c2CC(F)(F)F)c(OC)c1 [Example 39, tert-butyl N-[2-(3-{[2-methoxy-4-(methylcarbamoyl)phenyl]amino}prop-1-yn-1-yl)-8-[(1-methylpiperidin-4-yl)amino]-3-(2,2,2-trifluoroethyl)imidazo[1,2-a]pyridin-6-yl]carbamate] | > 1000 | 1 to 5 | < 70 | > 3000 | > 3000 | 5000 to 8000 | – | 1500 to 3000
CNC(=O)c1ccc(NCC#Cc2nc3c(NC4CCN(C)CC4)cc(N)cn3c2CC(F)(F)F)c(OC)c1 [Example 40, 4-[(3-{6-amino-8-[(1-methylpiperidin-4-yl)amino]-3-(2,2,2-trifluoroethyl)imidazo[1,2-a]pyridin-2-yl}prop-2-yn-1-yl)amino]-3-methoxy-N-methylbenzamide] | 10 to 100 | 5 to 10 | < 70 | > 3000 | > 3000 | ≥ 10000 | – | > 3000
CNC(=O)Nc1cc(NC2CCN(C)CC2)c2nc(C#CCNc3ccc(C(=O)NC)cc3OC)c(CC(F)(F)F)n2c1 [Example 44, 3-methoxy-N-methyl-4-[(3-{6-[(methylcarbamoyl)amino]-8-[(1-methylpiperidin-4-yl)amino]-3-(2,2,2-trifluoroethyl)imidazo[1,2-a]pyridin-2-yl}prop-2-yn-1-yl)amino]benzamide] | 100 to 1000 | 1 to 5 | < 70 | > 3000 | > 3000 | ≥ 10000 | – | > 3000
CCNC(=O)c1ccc(NCC#Cc2nc3c(N[C@@H]4CCN(C)C[C@@H]4F)cccn3c2CC(F)(F)F)c(OC)c1 [Example 47, N-ethyl-4-{[3-(8-{[(3S,4R)-3-fluoro-1-methylpiperidin-4-yl]amino}-3-(2,2,2-trifluoroethyl)imidazo[1,2-a]pyridin-2-yl)prop-2-yn-1-yl]amino}-3-methoxybenzamide] | 10 to 100 | ≥ 10 | 70 to 80 | > 3000 | 1500 to 3000 | ≥ 10000 | – | > 3000
COc1cc(C(=O)NC2CC2)ccc1NCC#Cc1nc2c(N[C@@H]3CCN(C)C[C@@H]3F)cccn2c1CC(F)(F)F [Example 49, N-cyclopropyl-4-{[3-(8-{[(3S,4R)-3-fluoro-1-methylpiperidin-4-yl]amino}-3-(2,2,2-trifluoroethyl)imidazo[1,2-a]pyridin-2-yl)prop-2-yn-1-yl]amino}-3-methoxybenzamide] | 10 to 100 | ≥ 10 | 70 to 80 | 750 to 1500 | 750 to 1500 | 8000 to 10000 | – | 750 to 1500
COc1cc(C(=O)N2CCCC2)ccc1NCC#Cc1nc2c(N[C@@H]3CCN(C)C[C@@H]3F)cccn2c1CC(F)(F)F [Example 50, (3S,4R)-3-fluoro-N-[2-(3-{[2-methoxy-4-(pyrrolidine-1-carbonyl)phenyl]amino}prop-1-yn-1-yl)-3-(2,2,2-trifluoroethyl)imidazo[1,2-a]pyridin-8-yl]-1-methylpiperidin-4-amine] | 10 to 100 | ≥ 10 | < 70 | 750 to 1500 | 750 to 1500 | ≥ 10000 | – | 750 to 1500

Second part, led by results:

Kd [1] [nM] | ΔTm at 100 µM [2] [°C] | Emax (p53 Y220C) [%] | AC50 (p53 Y220C) [nM] | IC50 (H1299 p53 Y220C) [nM] | IC50 (H1299 p53 R273H) [nM] | ΔTm at 10 µM [2] [°C] | SMILES | IC50 (NUGC3 p53 Y220C) [nM]
10 to 100 | 5 to 10 | < 70 | > 3000 | > 3000 | ≥ 10000 | – | CC#Cc1nn2c(N[C@@H]3CCN(C)C[C@@H]3F)cccc2c1CC(F)(F)F [Example 20, (3S,4R)-3-fluoro-1-methyl-N-[2-(prop-1-yn-1-yl)-3-(2,2,2-trifluoroethyl)pyrazolo[1,5-a]pyridin-7-yl]piperidin-4-amine] | > 3000
< 10 | 1 to 5 | < 70 | > 3000 | > 3000 | ≥ 10000 | 1 to 5 | COc1cc(S(C)(=O)=O)ccc1NCC#Cc1nc2c(NC3CCN(C)CC3)cc(N)cn2c1CC(F)(F)F [Example 32, 2-{3-[(4-methanesulfonyl-2-methoxyphenyl)amino]prop-1-yn-1-yl}-N8-(1-methylpiperidin-4-yl)-3-(2,2,2-trifluoroethyl) imidazo[1,2-a]pyridine-6,8-diamine] | > 3000
< 10 | 5 to 10 | 70 to 80 | > 3000 | 1500 to 3000 | ≥ 10000 | – | CNC(=O)c1ccc(NCC#Cc2nc3c(N[C@@H]4CCN(C)C[C@@H]4F)cccn3c2CC(F)(F)F)cc1 [Example 35, 4-{[3-(8-{[(3S,4R)-3-fluoro-1-methylpiperidin-4-yl]amino}-3-(2,2,2-trifluoroethyl)imidazo[1,2-a]pyridin-2-yl)prop-2-yn-1-yl]amino}-N-methylbenzamide] | 1500 to 3000
< 10 | ≥ 10 | 70 to 80 | 750 to 1500 | 750 to 1500 | ≥ 10000 | 5 to 10 | CNC(=O)c1ccc(NCC#Cc2nc3c(N[C@@H]4CCN(C)C[C@@H]4F)cccn3c2CC(F)(F)F)c(OC)c1 [Example 36, 4-{[3-(8-{[(3S,4R)-3-fluoro-1-methylpiperidin-4-yl]amino}-3-(2,2,2-trifluoroethyl)imidazo[1,2-a]pyridin-2-yl)prop-2-yn-1-yl]amino}3-methoxy-N-methylbenzamide] | 750 to 1500
< 10 | ≥ 10 | 70 to 80 | 1500 to 3000 | 750 to 1500 | ≥ 10000 | – | COc1cc(C(=O)N(C)C)ccc1NCC#Cc1nc2c(N[C@@H]3CCN(C)C[C@@H]3F)cccn2c1CC(F)(F)F [Example 46, 4-{[3-(8-{[(3S,4R)-3-fluoro-1-methylpiperidin-4-yl]amino}-3-(2,2,2-trifluoroethyl)imidazo[1,2-a]pyridin-2-yl)prop-2-yn-1-yl]amino}-3-methoxy-N,N-dimethylbenzamide] | 1500 to 3000
< 10 | ≥ 10 | 70 to 80 | 750 to 1500 | < 750 | 5000 to 8000 | – | COc1cc(C(=O)NC(C)C)ccc1NCC#Cc1nc2c(N[C@@H]3CCN(C)C[C@@H]3F)cccn2c1CC(F)(F)F [Example 48, 4-{[3-(8-{[(3S,4R)-3-fluoro-1-methylpiperidin-4-yl]amino}-3-(2,2,2-trifluoroethyl)imidazo[1,2-a]pyridin-2-yl)prop-2-yn-1-yl]amino}-N-isopropyl-3-methoxybenzamide] | 750 to 1500
